# Patent US6855843B2, “Inhibitors of α4 mediated cell adhesion” (Tanabe Seiyaku Co., Ltd., priority 1998, dated 2005)
# Where a name gives a salt, the structure may show the parent alone.
# Target: T1, α4β7 (adhesion of RPMI cells to CS-1) (Homo sapiens, UniProt P13612+P26010)
# T1 construct: endogenous in cells
# T1 sequence (P13612 34-1032): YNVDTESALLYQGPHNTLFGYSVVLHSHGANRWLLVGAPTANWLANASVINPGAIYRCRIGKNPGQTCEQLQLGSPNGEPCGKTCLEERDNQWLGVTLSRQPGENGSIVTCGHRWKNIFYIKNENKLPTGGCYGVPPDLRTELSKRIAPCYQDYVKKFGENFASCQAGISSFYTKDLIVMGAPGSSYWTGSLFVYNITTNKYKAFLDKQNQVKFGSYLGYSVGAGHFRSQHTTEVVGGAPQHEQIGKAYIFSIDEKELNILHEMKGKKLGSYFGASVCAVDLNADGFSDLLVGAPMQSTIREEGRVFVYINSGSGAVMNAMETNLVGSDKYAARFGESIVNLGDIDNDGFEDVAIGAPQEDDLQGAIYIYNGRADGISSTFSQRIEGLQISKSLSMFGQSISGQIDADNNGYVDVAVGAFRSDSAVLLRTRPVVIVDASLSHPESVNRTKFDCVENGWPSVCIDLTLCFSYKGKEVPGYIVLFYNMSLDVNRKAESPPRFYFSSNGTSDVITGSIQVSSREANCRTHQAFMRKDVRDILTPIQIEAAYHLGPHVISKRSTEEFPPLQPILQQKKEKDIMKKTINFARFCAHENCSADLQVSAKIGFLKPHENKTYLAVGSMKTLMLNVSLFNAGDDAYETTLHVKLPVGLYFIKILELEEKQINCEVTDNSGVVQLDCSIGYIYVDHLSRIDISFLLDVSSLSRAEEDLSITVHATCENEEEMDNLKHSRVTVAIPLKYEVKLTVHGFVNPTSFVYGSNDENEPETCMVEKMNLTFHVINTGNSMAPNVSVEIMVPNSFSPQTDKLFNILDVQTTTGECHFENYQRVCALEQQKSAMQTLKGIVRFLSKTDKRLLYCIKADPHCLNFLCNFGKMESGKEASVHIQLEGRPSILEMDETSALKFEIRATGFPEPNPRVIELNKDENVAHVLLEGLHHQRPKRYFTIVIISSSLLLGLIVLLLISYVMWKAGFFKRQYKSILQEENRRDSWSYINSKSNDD
# T1 sequence (P26010 20-798): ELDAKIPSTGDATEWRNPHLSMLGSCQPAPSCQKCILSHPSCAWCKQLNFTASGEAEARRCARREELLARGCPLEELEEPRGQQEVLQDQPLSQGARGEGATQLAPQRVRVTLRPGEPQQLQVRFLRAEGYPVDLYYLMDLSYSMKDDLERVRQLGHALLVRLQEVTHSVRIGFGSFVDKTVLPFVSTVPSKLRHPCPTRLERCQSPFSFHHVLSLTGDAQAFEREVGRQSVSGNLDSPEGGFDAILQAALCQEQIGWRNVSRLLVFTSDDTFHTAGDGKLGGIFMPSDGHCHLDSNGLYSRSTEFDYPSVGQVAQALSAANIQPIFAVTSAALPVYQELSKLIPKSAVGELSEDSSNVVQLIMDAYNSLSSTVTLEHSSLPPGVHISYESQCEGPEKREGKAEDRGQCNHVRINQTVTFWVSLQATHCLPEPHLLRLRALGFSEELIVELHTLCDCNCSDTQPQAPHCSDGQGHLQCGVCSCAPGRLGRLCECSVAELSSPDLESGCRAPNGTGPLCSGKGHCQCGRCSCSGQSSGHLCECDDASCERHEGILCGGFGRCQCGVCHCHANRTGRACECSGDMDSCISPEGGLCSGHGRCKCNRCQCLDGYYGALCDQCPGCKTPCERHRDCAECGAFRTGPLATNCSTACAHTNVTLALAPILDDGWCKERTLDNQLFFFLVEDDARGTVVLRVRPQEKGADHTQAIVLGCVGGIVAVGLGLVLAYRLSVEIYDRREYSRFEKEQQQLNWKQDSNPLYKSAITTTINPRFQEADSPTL
# Test: RPMI-CS-1 cell adhesion assay
# Type: cell-based
# Conditions: adhesion of RPMI B-cell line (expresses α4β7) to CS-1 peptide coated microwells; read-out: RPMI-CS-1 IC50 value range
row,SMILES,IC50 [nM]
1,"COc1cccc(OC)c1-c1ccc(C[C@H](NC(=O)c2c(Cl)cccc2Cl)c2nnn[nH]2)cc1 [Example 270, (1S)-N-(2,6-Dichlorobenzoyl)-2-[4-(2,6-dimethoxyphenyl)phenyl]-1-(1H-tetrazol-5-yl) ethylamine]",< 300
2,"COC(=O)[C@H](Cc1ccc(-c2ccccc2S(=O)(=O)NC(C)(C)C)cc1)NC(=O)c1c(Cl)cccc1Cl [Example 15, N-(2,6-Dichlorobenzoyl)-4-[2-[N-(tert-butyl)sulfamoyl]phenyl]-L-phenylalanine methyl ester]",300 to 1000
3,COc1ccccc1-c1ccc(C[C@H](NC(=O)c2cnccn2)C(=O)O)cc1 [Example 103],> 5000
4,COc1cccc(OC)c1-c1ccc(C[C@H](NC(=O)c2cccc(C)c2)C(=O)O)cc1 [Example 281],1000 to 5000
5,"O=C(N[C@@H](Cc1ccc(-c2cccs2)cc1)C(=O)O)c1c(Cl)cccc1Cl [Example 4B, N-(2,6-Dichlorobenzoyl)-4-(2-thienyl)-L-phenylalanine]",300 to 1000
6,COc1ccccc1-c1ccc(C[C@H](NC(=O)c2ccc(NC(=S)NC(C)C)cc2Cl)C(=O)O)cc1 [Example 195],300 to 1000
7,N#Cc1ccccc1-c1ccc(C[C@H](NC(=O)c2c(Cl)cccc2Cl)C(=O)O)cc1 [Example 138],< 300
8,O=C(N[C@@H](Cc1ccc(-c2ccccc2OCCCO)cc1)C(=O)O)c1c(Cl)cccc1Cl [Example 37],300 to 1000
9,CCCN1CCN(Cc2cc(OC)c(-c3ccc(C[C@H](NC(=O)c4c(Cl)cccc4Cl)C(=O)O)cc3)c(OC)c2)CC1 [Example 252],< 300
10,COC(=O)[C@H](Cc1ccc(-c2ccccc2CNc2ccccn2)cc1)NC(=O)c1c(Cl)cccc1Cl [Example 115],1000 to 5000
11,O=C(N[C@@H](Cc1ccc(-c2ccccn2)cc1)C(=O)O)c1c(Cl)cccc1Cl [Example 137],300 to 1000
12,CN1CCCC(COc2ccccc2-c2ccc(C[C@H](NC(=O)c3c(Cl)cccc3Cl)C(=O)O)cc2)C1 (some centres unmarked) [Example 44],300 to 1000
13,CC(C)COc1ccccc1-c1ccc(C[C@H](NC(=O)c2c(Cl)cccc2Cl)C(=O)O)cc1 [Example 35],1000 to 5000
14,"O=C(O)C=Cc1ccccc1-c1ccc(C[C@H](NC(=O)c2c(Cl)cccc2Cl)C(=O)O)cc1 (mixture of isomers) [Example 49, N-(2,6-Dichlorobenzoyl)-4-[2-(2-carboxyethenyl)phenyl]-L-phenylalanine]",300 to 1000
15,COc1cc(CN2CCN(CCO)CC2)cc(OC)c1-c1ccc(C[C@H](NC(=O)c2c(Cl)cccc2Cl)C(=O)O)cc1 [Example 250],< 300
16,"COc1ccccc1-c1ccc(C[C@H](NC(=O)c2ccc(NS(=O)(=O)c3ccccc3C)cc2Cl)C(=O)O)cc1 [Example 192, N-[2-Chloro-4-[[(2-methylphenyl)sulfonyl]amino]benzoyl]-4-(2-methoxyphenyl)-L-phenylalanine]",< 300
17,"O=C(N[C@@H](Cc1ccc(-c2ccccc2CNc2ccccc2)cc1)C(=O)O)c1c(Cl)cccc1Cl [Example 46, N-(2,6-Dichlorobenzoyl)-4-[2-[(phenylamino)methyl]phenyl]-L-phenylalanine]",< 300
18,COc1cccc(OC)c1-c1ccc(C[C@H](NC(=O)c2c(F)cc(F)cc2F)C(=O)O)cc1 [Example 279],< 300
19,COc1ccccc1-c1ccc(C[C@H](NC(=O)c2ccc(Cl)cc2Cl)C(=O)O)cc1 [Example 84],1000 to 5000

row,SMILES,IC50 [nM]
1,COc1cc(CN2CCSCC2)cc(OC)c1-c1ccc(C[C@H](NC(=O)c2c(Cl)cccc2Cl)C(=O)O)cc1 [Example 134],< 300
2,CCOC(=O)Nc1cc(C[C@H](NC(=O)c2c(Cl)cccc2Cl)C(=O)O)ccc1-c1ccccc1 [Example 344],1000 to 5000
3,Cc1ccccc1-c1ccc(C[C@H](NC(=O)c2c(Cl)cccc2Cl)C(=O)O)cc1 [Example 112],300 to 1000
4,"CCOC(=O)[C@H](Cc1ccc(-c2c(OC)cc(CN(C)C)cc2OC)cc1)NC(=O)c1c(Cl)cccc1Cl [Example 259, N-(2,6-Dichlorobenzoyl)-4-[2,6-dimethoxy-4-[(N,N-dimethylamino)methyl]phenyl]-L-phenylalanine ethyl ester hydrochloride]",< 300
5,"CC(C)(C)OC(=O)Nc1ccccc1-c1ccc(C[C@H](NC(=O)c2c(Cl)cccc2Cl)C(=O)O)cc1 [Example 22, N-(2,6-Dichlorobenzoyl)-4-[2-(tertbutoxycarbonylamino)phenyl]-L-phenylalanine]",1000 to 5000
6,COc1ccccc1-c1ccc(C[C@H](NC(=O)c2ccc(S(C)(=O)=O)cc2Cl)C(=O)O)cc1 [Example 211],< 300
7,O=C(N[C@@H](Cc1ccc(-c2ccccc2)cc1)C(=O)O)c1c(Cl)cccc1Cl [Example 111],1000 to 5000
8,Cc1ncc(COc2ccccc2-c2ccc(C[C@H](NC(=O)c3c(Cl)cccc3Cl)C(=O)O)cc2)s1 [Example 42],300 to 1000
9,"NCc1ccccc1-c1ccc(C[C@H](NC(=O)c2c(Cl)cccc2Cl)C(=O)O)cc1 [Example 47, N-(2,6-Dichlorobenzoyl)-4-[2-(aminomethyl)phenyl]-L-phenylalanine]",< 300
10,"O=C(N[C@@H](Cc1ccc(-c2c(OCCO)ccc3c2OCO3)cc1)C(=O)O)c1c(Cl)cccc1Cl [Example 238, N-(2,6-Dichlorobenzoyl)-4-[2,3-methylenedioxy-6-(2-hydroxyethoxy)phenyl]-L-phenylalanine]",< 300
11,"COc1cc(OC)c(-c2ccc(C[C@H](NC(=O)c3c(Cl)cccc3Cl)C(=O)O)cc2)c(OC)c1 [Example 11, N-(2,6-Dichlorobenzoyl)-4-(2,4,6-trimethoxyphenyl)-L-phenylalanine]",< 300
12,"O=C(O)c1ccccc1-c1ccc(C[C@H](NC(=O)c2c(Cl)cccc2Cl)C(=O)O)cc1 [Example 52, N-(2,6-Dichlorobenzoyl)-4-(2-carboxyphenyl)-L-phenylalanine]",> 5000
13,O=C(O)CCCOc1ccccc1-c1ccc(C[C@H](NC(=O)c2c(Cl)cccc2Cl)C(=O)O)cc1 [Example 36],< 300
14,"O=C(NCCN1CCOCC1)c1ccccc1-c1ccc(C[C@H](NC(=O)c2c(Cl)cccc2Cl)C(=O)O)cc1 [Example 59, N-(2,6-Dichlorobenzoyl)-4-[2-[N-(2-morpholinoethyl)carbamoyl]phenyl]-L-phenylalanine]",1000 to 5000
15,"COc1ccccc1-c1ccc(C[C@H](NC(=O)c2c(Cl)cccc2Cl)C(=O)O)cc1C(C)O (stereo partly drawn) [Example 73, N-(2,6-Dichlorobenzoyl)-3-(1-hydroxyethyl)-4-(2-methoxyphenyl)-L-phenylalanine]",< 300
16,"COc1cccc(OC)c1-c1ccc(C[C@H](NC(=O)c2c(Cl)cccc2Cl)C(=O)OC2CCCCC2)cc1 [Example 276, N-(2,6-Dichlorobenzoyl)-4-(2,6-dimethoxyphenyl)-L-phenylalanine cyclohexyl ester]",> 5000
17,"COc1ccccc1-c1ccc(C[C@H](NC(=O)c2c(Cl)cccc2Cl)C(=O)O)cc1C(C)=NO [Example 351, N-(2,6-Dichlorobenzoyl)-3-[1-(hydroxyimino)ethyl]-4-(2-methoxyphenyl)-L-phenylalanine]",< 300
18,"COc1ccc2c(c1-c1ccc(C[C@H](NC(=O)c3c(Cl)cccc3Cl)C(=O)O)cc1)OCO2 [Example 240, N-(2,6-Dichlorobenzoyl)-4-(2,3-methylenedioxy-6-methoxyphenyl)-L-phenylalanine]",< 300
19,"COc1ccccc1-c1ccc(C[C@H](NC(=O)c2ccc(C(=O)O)cc2Cl)C(=O)O)cc1 [Example 177, N-[2-Chloro-4-carboxybenzoyl]-4-(2-methoxyphenyl)-L-phenylalanine]",< 300
